Test results reported in ChEMBL document CHEMBL4177539, “Discovery of N-((3R,4R)-4-Fluoro-1-(6-((3-methoxy-1-methyl-1H-pyrazol-4-yl)amino)-9-methyl-9H-purin-2-yl)pyrrolidine-3-yl)acrylamide (PF-06747775) through Structure-Based Drug Design: A High Affinity Irreversible Inhibitor Targeting Oncogenic EGFR Mutants with Selectivity over Wild-Type EGFR” (J Med Chem, 2017).

What was measured:
[1] = in vitro; settings: human, liver microsomes
[2] = in vitro; settings: dog, MDCK
[3] = physchem; settings: octanol/water
[4] = target: Epidermal growth factor receptor (Homo sapiens, UniProt P00533)
Chain of Epidermal growth factor receptor (P00533 whole entry): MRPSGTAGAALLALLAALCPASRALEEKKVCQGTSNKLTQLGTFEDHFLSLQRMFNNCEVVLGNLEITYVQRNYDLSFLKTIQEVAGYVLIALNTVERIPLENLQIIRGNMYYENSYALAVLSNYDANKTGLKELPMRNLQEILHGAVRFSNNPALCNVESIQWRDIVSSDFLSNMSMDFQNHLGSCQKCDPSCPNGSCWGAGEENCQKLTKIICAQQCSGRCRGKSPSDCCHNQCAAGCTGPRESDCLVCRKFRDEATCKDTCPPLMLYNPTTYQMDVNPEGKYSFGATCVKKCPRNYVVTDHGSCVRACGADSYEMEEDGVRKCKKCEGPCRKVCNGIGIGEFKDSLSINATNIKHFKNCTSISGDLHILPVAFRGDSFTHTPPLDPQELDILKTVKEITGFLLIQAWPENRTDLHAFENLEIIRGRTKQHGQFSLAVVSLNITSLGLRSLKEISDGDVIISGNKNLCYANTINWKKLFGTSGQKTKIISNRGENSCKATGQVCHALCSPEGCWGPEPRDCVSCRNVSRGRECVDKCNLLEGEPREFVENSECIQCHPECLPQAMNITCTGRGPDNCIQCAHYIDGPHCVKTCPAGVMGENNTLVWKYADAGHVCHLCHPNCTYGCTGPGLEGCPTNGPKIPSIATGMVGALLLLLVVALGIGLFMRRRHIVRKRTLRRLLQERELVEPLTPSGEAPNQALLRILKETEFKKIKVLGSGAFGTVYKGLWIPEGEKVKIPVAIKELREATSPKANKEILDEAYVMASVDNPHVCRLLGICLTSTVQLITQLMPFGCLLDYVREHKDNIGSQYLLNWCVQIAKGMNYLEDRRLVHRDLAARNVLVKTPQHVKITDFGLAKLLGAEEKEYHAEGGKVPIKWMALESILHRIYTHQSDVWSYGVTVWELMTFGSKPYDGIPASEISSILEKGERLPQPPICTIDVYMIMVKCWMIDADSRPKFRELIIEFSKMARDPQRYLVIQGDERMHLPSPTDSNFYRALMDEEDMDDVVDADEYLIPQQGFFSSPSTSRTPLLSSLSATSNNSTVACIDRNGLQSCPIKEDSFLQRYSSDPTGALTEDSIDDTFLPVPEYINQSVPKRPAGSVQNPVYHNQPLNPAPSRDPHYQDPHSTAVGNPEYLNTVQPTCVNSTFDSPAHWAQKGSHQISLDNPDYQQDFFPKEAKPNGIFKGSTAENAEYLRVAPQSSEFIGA

[5] = species: Homo sapiens; assay: Selectivity index, ratio of IC50 for wild-type EGFR autophosphorylation in human A549 cells to IC50 for EGFR T790M/L858R double mutant autophosphorylation in human H1975 cells; assay type: cell-based
[6] = test system: Hepatocyte; settings: human, hepatocytes, 1 µM

SMILES	microsomal CLint at […], 1 µM [1] [µL/min/mg]	Papp [2] [×10⁻⁶ cm/s]	logD [3]	IC50 [4] [µM]	Ratio IC50 [5]	CLH [6] [µL/min/mg]
C=CC(=O)N[C@@H]1CN(c2nc(Nc3cn(C)nc3OC)c3nc[nH]c3n2)C[C@H]1F	8	2	1.8			
C=CC(=O)N1CC[C@H](Nc2nc(Nc3ccc(N4CCN(C)CC4)cc3)c3ncn(C(C)C)c3n2)C1			1.8	> 10	> 35	
C=CC(=O)N[C@@H]1CN(c2nc(Nc3cn(C)nc3OC)c3ncn(C(C)C)c3n2)C[C@H]1F	32	18	2.6			23
